Like-named read-outs stand apart in the source and are kept apart here. Values belong to the molecule of their own block, whether it stands above or below them.
Columns and labels:
[1] = Plasma pharmacokinetics, rising multiple-dose study; format: in vivo, human
[2] = format: in vivo, human
[3] = Safety and tolerability; format: in vivo, human
[4] = system: urinary levels of norepinephrine, dopamine, epinephrine and homovanillic acid; assay: Urinary catecholamine excretion; format: in vivo, human; settings: for decrease of urinary excretion of norepinephrine at day 10 in relation to day 1: 24-hour urine
[5] = Supine blood pressure and ECG-measured heart rate; format: in vivo, human; settings: for decrease of supine DBP Emax in relation to day 1 / decrease of supine DBP AUCEC in relation to day 1: repeated dosing
[6] = cited from earlier work
[7] = healthy subjects; cited from earlier work
[8] = system: spontaneously hypertensive rats (SHR); settings: cited from earlier work
[9] = system: DβH; settings: cited from earlier work
[10] = etamicastat 25–600 mg once daily for 10 days

days of dosing until steady-state plasma concentrations were attained ([1]; all dose groups 25–600 mg once daily): up to 9 days | linearity of pharmacokinetics ([1]; dose range 25–600 mg): linear pharmacokinetics | day at which steady state was reached (trough plasma concentrations) ([1]; etamicastat 200 mg once daily): 9 days | day at which steady state was reached (trough plasma concentrations) ([1]; etamicastat 400 mg once daily): 8 days | effect of NAT1 phenotype on etamicastat pharmacokinetics ([1]; etamicastat 25–600 mg): No relevant effect | half-life ([1]; male, human, plasma, oral, mean apparent t1/2 following the first dose, range over etamicastat 25–600 mg, plasma): 9 to 15 h | mean observed accumulation ratio (RO) ([1]; range over etamicastat 25–600 mg once daily for 10 days): 1.3–1.9 | time after dosing at which maximum concentration (Cmax) was reached ([1]; range over etamicastat 25–600 mg once daily, plasma): 1 to 3 h | day at which steady state was reached (trough plasma concentrations) ([1]; remaining dose groups): < 6 days | urinary excretion rate ([2]; first dose, etamicastat 25 mg): 0.3 ± 0.1 mg/h | urinary excretion rate ([2]; first dose, etamicastat 600 mg): 8.5 ± 3.2 mg/h | urinary excretion rate ([2]; last dose, etamicastat 25 mg): 0.4 ± 0.2 mg/h | urinary excretion rate ([2]; last dose, etamicastat 600 mg): 10.6 ± 2.8 mg/h | CL renal ([2]; male, human, urine and plasma, po): 198 to 267 mL/min
SMILES: Cl.NCCc1c[nH]c(=S)n1[C@H]1COc2c(F)cc(F)cc2C1 [Etamicastat, (R)-5-(2-aminoethyl)-1-(6,8-difluorochroman-3-yl)-1,3-dihydroimidazole-2-thione hydrochloride]
subjects reporting diarrhea as an AE ([3]; 600 mg etamicastat group): 83% | clinical laboratory evaluations [3, 10]: no clinically significant abnormality | intensity of adverse events [3, 10]: mild to moderate | serious adverse events [3, 10]: no serious AEs | tolerability ([3]; etamicastat up to 600 mg once daily for 10 days): generally well tolerated | change in urinary excretion of homovanillic acid, epinephrine and dopamine ([4]; day 1 to day 10, all dose groups): No relevant changes | decrease in norepinephrine urinary excretion ([4]; doses of etamicastat 100 mg and above, day 10 vs day 1): 32–36% | decrease of urinary excretion of norepinephrine at day 10 in relation to day 1 ([4]; etamicastat 25 mg once daily): 24% | decrease of urinary excretion of norepinephrine at day 10 in relation to day 1 ([4]; etamicastat 50 mg once daily): 18% | decrease of urinary excretion of norepinephrine at day 10 in relation to day 1 ([4]; etamicastat 100 mg once daily): 36% | decrease of urinary excretion of norepinephrine at day 10 in relation to day 1 ([4]; etamicastat 200 mg once daily): 34% | decrease of urinary excretion of norepinephrine at day 10 in relation to day 1 ([4]; etamicastat 400 mg once daily): 32% | decrease of urinary excretion of norepinephrine at day 10 in relation to day 1 ([4]; etamicastat 600 mg once daily): 34% | decrease of supine DBP Emax in relation to day 1 ([5]; etamicastat 100 mg, p < 0.01): 5.6 mmHg | decrease of supine DBP AUCEC in relation to day 1 ([5]; etamicastat 100 mg, p < 0.05): 223 mmHg · h | decrease of supine DBP AUCEC in relation to day 1 ([5]; etamicastat 200 mg, p < 0.05): 193 mmHg · h | decrease of supine DBP Emax in relation to day 1 ([5]; etamicastat 200 mg, p < 0.05): 5.9 mmHg | change in SBP and HR ([5]; following repeated dosing, any dose level): did not significantly change | changes in SBP, DBP or HR ([5]; following the first dose, etamicastat 25–600 mg): no significant changes | time of maximum plasma concentrations (Cmax) after dosing ([6]; single dose 2–1200 mg): 1 to 3 h | tolerability ([6]; single doses 2–1200 mg): well tolerated at all the investigated dose levels | longer elimination half-life (t1/2) ([6]; single etamicastat doses ≥100 mg): 16 to 20 h | effect of food on absorption [7]: delayed by the presence of food | effect of food on extent of systemic exposure (AUC) [7]: no significant effect | blood pressure and norepinephrine urinary excretion ([8]; chronically administered in drinking water, SHR rats): significantly reduced | urinary excretion of dopamine ([8]; chronically administered in drinking water, only in SHR rats): increased significantly | systolic and diastolic blood pressure (but not the heart rate) ([8]; oral administration, SHR rats, dose-dependent, not observed in normotensive control rats): decreased

SMILES: NCc1c[nH]c(=S)n1[C@H]1CCc2c(F)cc(F)cc2C1 [Nepicastat]
potency as DβH inhibitor versus first- and second-generation inhibitors [9]: much greater potency
